16 compounds from patent publication US10544143B2, “4-azaindole compounds” (BRISTOL-MYERS SQUIBB COMPANY, priority 2017, dated 2020) can be followed below.

For test [1], the target named is human TLR8 (Homo sapiens (Human), UniProt Q9NR97). As to the kind of experiment: TLR8 inhibition reporter assay (HEK-Blue SEAP).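 Further: SEAP driven by IFN-β minimal promoter carrying NF-κB and AP-1 sites, compounds dosed 0.05 nM to 50 µM for 22 h, inhibition scaled between agonist-plus-DMSO and reference-inhibitor wells.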 Particulars: R848 15.9 μM.
Test [2] addresses human TLR7 (Homo sapiens (Human), UniProt Q9NYK1). Briefly: TLR7 inhibition reporter assay (HEK-Blue SEAP). It is filed as cell-based. Particulars: HEK-Blue human TLR7 cells, gardiquimod 7.5 μM. Background: A reporter such as luciferase makes a cellular process visible.
The target of test [3] is human TLR9 (Homo sapiens (Human), UniProt Q9NR96). As to the kind of experiment: TLR9 inhibition reporter assay (HEK-Blue SEAP).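 Further: SEAP driven by an IFN-β minimal promoter with NF-κB and AP-1 sites, read after 22 h, compounds dosed 0.05 nM–50 µM, inhibition scaled between agonist plus DMSO and reference-inhibitor wells.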 Particulars: ODN2006 5 nM.
Setting [4] is: read-out: TLR8 IC50, HEK-Blue human TLR8 cells.
[5] abbreviates: read-out: TLR9 IC50, HEK-Blue human TLR9 cells.

In general, IC50 refers to the point on the concentration scale where inhibition reaches its midpoint.

Each structure is given as a SMILES string. Read-outs that look alike come from different tables or passages of the source. Bounds are passed on as bounds.

Chain of human TLR9 (Q9NR96 26-1032): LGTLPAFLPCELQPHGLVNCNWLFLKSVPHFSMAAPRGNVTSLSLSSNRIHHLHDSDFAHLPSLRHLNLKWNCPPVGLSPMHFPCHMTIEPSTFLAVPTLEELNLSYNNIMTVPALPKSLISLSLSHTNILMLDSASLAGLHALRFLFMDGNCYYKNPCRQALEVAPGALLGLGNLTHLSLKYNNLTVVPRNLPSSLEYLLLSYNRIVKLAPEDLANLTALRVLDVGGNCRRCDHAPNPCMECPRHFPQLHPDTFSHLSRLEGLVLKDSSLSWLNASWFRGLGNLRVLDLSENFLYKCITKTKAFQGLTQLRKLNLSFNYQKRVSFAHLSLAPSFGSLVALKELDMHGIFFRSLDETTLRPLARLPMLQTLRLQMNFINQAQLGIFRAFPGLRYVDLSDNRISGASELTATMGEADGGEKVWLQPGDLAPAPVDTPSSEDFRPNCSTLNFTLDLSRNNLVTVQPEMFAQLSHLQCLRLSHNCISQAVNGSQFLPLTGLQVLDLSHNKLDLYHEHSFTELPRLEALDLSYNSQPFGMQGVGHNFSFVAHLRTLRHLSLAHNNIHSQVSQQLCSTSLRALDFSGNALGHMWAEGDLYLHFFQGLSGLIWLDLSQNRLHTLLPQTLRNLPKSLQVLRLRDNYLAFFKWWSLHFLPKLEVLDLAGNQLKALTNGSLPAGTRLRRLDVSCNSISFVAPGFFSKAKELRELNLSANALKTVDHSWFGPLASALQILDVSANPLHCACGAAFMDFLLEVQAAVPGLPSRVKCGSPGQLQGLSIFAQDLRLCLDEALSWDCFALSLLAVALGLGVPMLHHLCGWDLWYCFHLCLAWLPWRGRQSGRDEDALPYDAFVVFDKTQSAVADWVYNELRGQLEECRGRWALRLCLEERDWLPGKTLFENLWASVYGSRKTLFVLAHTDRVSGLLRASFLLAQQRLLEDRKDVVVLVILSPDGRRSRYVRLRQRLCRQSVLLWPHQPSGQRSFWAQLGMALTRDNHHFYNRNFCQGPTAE
Chain of human TLR8 (Q9NR97 27-1041): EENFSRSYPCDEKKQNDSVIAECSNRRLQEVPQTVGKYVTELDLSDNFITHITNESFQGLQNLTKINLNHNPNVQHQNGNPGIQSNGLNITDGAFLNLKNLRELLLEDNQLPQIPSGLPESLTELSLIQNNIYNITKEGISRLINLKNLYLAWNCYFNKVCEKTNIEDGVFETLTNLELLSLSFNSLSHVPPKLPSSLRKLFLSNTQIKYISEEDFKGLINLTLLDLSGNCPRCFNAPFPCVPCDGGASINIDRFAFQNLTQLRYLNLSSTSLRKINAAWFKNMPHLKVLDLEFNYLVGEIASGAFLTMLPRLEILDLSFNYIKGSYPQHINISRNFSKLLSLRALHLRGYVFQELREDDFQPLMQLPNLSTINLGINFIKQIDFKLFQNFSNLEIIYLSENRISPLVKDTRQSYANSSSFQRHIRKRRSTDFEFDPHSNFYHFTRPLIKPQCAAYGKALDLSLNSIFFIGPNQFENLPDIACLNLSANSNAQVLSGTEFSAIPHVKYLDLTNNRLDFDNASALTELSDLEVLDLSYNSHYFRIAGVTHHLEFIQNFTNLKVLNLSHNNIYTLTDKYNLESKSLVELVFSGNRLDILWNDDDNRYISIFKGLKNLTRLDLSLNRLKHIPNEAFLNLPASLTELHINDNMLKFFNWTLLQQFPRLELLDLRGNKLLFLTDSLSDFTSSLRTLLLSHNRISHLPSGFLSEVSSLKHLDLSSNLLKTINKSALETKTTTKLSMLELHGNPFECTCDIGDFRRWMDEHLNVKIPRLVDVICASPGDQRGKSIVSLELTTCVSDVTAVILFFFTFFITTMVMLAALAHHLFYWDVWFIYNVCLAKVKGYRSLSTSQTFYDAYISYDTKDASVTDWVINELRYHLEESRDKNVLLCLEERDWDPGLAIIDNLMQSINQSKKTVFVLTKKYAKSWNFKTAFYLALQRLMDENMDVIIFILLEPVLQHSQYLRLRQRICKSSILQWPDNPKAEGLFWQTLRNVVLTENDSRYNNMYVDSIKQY
Chain of human TLR7 (Q9NYK1 27-1049): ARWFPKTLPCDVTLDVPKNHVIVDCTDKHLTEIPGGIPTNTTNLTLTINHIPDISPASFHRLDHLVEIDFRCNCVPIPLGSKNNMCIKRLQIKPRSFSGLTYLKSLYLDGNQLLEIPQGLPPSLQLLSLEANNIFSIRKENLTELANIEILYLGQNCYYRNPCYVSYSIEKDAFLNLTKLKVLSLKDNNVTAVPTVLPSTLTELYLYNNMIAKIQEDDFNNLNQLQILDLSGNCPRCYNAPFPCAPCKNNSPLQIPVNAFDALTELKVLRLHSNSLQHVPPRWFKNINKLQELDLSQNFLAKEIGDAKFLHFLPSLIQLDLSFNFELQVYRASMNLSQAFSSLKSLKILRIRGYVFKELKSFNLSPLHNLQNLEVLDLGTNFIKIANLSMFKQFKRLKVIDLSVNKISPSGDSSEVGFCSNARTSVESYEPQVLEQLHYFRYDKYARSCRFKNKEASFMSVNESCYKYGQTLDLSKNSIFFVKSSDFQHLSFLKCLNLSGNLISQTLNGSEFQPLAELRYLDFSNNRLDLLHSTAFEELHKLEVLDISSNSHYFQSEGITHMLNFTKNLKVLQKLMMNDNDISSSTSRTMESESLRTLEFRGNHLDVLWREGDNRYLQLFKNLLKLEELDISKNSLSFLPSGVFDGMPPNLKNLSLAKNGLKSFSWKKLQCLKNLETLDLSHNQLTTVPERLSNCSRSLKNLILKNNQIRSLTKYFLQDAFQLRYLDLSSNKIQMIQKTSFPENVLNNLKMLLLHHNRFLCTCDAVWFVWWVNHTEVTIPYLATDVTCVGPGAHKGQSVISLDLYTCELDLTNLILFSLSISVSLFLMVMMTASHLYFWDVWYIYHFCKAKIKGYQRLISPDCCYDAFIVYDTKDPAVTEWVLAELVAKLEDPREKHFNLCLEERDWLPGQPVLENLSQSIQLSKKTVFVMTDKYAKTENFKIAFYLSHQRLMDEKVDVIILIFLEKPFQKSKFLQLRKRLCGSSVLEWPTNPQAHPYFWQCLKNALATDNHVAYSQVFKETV

In the case of `Cc1c(-c2[nH]c3ccc(N4CCN(C(=O)CN5CC(C)(O)C5)CC4)nc3c2C(C)C)cn2ncnc2c1C` [Example 946], the figures for the IC50 in test [1] (setting [4]), in test [2] and in test [3] (setting [5]) were 1.8 nM, 1.4 nM and 8950 nM, respectively.
Turning to `Cc1c(-c2[nH]c3ccc(N4CCN(C(=O)CN5CCC6(CCOC6)C5)CC4)nc3c2C(C)C)cn2ncnc2c1C` (stereo not drawn) [Example 947], the concentration for half-maximal inhibition (IC50) in test [1] (setting [4]) amounted to 0.66 nM; in test [2], 1.9 nM; in test [3] (setting [5]), 8770 nM.
Consider `Cc1c(-c2[nH]c3ccc(N4CCN(C(=O)CN5CCC(C)(O)C5)CC4)nc3c2C(C)C)cn2ncnc2c1C` (stereo not drawn) [Example 948], for which the IC50 in test [1] (setting [4]) worked out at 1.4 nM; in test [2], 2.8 nM; in test [3] (setting [5]), 12800 nM.
As to `Cc1c(-c2[nH]c3ccc(N4CCN(C(=O)CN(C)CC(C)(C)O)CC4)nc3c2C(C)C)cn2ncnc2c1C` [Example 949], the half-inhibitory concentration (IC50) was determined as 1.6 nM in test [1] (setting [4]), 2.6 nM in test [2] and 31000 nM in test [3] (setting [5]).
Consider `Cc1c(-c2[nH]c3ccc(N4CCN(C(=O)CN5CCOCC5(C)C)CC4)nc3c2C(C)C)cn2ncnc2c1C` [Example 950], for which the half-inhibitory concentration (IC50) in test [1] (setting [4]) worked out at 4.9 nM; in test [2], 7.2 nM; in test [3] (setting [5]) it was 36100 nM.
Regarding `Cc1c(-c2[nH]c3ccc(N4CCN(C(=O)CN5CC6(C5)CS(=O)(=O)C6)CC4)nc3c2C(C)C)cn2ncnc2c1C` [Example 951], the IC50 is 1.5 nM in test [1] (setting [4]), 6.5 nM in test [2] and more than 50000 nM in test [3] (setting [5]).
With `[2H]C([2H])([2H])NCC(=O)N1CCN(c2ccc3[nH]c(-c4cn5ncnc5c(C)c4C)c(C(C)C)c3n2)CC1` [Example 952], the 50% inhibitory concentration (IC50) in test [1] (TLR8 IC50, HEK-Blue human TLR8 cells) was 0.7 nM; in test [2], 1.8 nM; in test [3] (TLR9 IC50, HEK-Blue human TLR9 cells) it was 7860 nM.
`Cc1c(-c2[nH]c3ccc(N4CCN(C(=O)CN(CCO)C(C)(C)C)C[C@H]4C)nc3c2C(C)C)cn2ncnc2c1C` [Example 953]: the IC50 came out at 5.3 nM in test [1] (setting [4]), 0.92 nM in test [2] and 12000 nM in test [3] (setting [5]).
For `Cc1c(-c2[nH]c3ccc(N4C[C@H](C)N(C(=O)CN(CCO)C(C)(C)C)C[C@H]4C)nc3c2C(C)C)cn2ncnc2c1C` [Example 954], the IC50 in test [1] (setting [4]) was found to be 36 nM; in test [2], 1.9 nM; in test [3] (setting [5]) it was 20900 nM.
Regarding `Cc1c(-c2[nH]c3ccc(N4CCN(C(=O)CN(CCO)C(C)(C)C)[C@H](C)C4)nc3c2C(C)C)cn2ncnc2c1C` [Example 955], the IC50 in test [1] (setting [4]) came out at 2 nM; in test [2], 0.76 nM; in test [3] (setting [5]), 20400 nM.
The matching figures for `Cc1c(-c2[nH]c3ccc(N4CCN(C(=O)CN5CC6(CCOC6)C5)CC4)nc3c2C(C)C)cn2ncnc2c1C` [Example 956]: 1.9 nM, 1 nM and 9650 nM.
As for `Cc1c(-c2[nH]c3ccc(N4CCN(C(=O)CN5CCC6(COC6)C5)CC4)nc3c2C(C)C)cn2ncnc2c1C` [Example 957], the results for the IC50 in test [1] (setting [4]), in test [2] and in test [3] (setting [5]) were 2.9 nM, 0.92 nM and 24400 nM, respectively.
Regarding `Cc1c(-c2[nH]c3ccc(N4C[C@@H](C)N(C(=O)CCN5CC6(CCO6)C5)C[C@@H]4C)nc3c2C(C)C)cn2ncnc2c1C` [Example 958], the IC50 in test [1] (setting [4]) turned out to be 2.3 nM; in test [2], 0.27 nM; in test [3] (setting [5]) it was 11200 nM.
Take `Cc1c(-c2[nH]c3ccc(N4C[C@@H](C)N(C(=O)CCN5CC6(C5)CS(=O)(=O)C6)C[C@@H]4C)nc3c2C(C)C)cn2ncnc2c1C` [Example 959]: the 50% inhibitory concentration (IC50) in test [1] (setting [4]) was 0.29 nM; in test [2] it was 1.4 nM; in test [3] (setting [5]), 7680 nM.
The matching figures for `Cc1c(-c2[nH]c3ccc(N4C[C@@H](C)N(C(=O)CCN5CC6(CCOC6)C5)C[C@@H]4C)nc3c2C(C)C)cn2ncnc2c1C` [Example 960]: 0.32 nM, 0.77 nM and 3170 nM.
On to `Cc1c(-c2[nH]c3ccc(N4C[C@@H](C)N(C(=O)CCN5CCC6(COC6)C5)C[C@@H]4C)nc3c2C(C)C)cn2ncnc2c1C` [Example 961], for which the IC50 in test [1] (setting [4]) worked out at 0.8 nM; in test [2], 0.35 nM; in test [3] (setting [5]), 8340 nM.
